The values below come from publication PMC5736207 (PLoS ONE, 2017).

The Km is the concentration of substrate that gives half-maximal velocity.

The target in experiment [1] is T1, PMM2 (phosphomannomutase2) (Homo sapiens, UniProt O15305).
T1 construct: recombinant, E. coli BL21(DE3), purified as in earlier work; no tag mentioned
T1 sequence (O15305 2-246): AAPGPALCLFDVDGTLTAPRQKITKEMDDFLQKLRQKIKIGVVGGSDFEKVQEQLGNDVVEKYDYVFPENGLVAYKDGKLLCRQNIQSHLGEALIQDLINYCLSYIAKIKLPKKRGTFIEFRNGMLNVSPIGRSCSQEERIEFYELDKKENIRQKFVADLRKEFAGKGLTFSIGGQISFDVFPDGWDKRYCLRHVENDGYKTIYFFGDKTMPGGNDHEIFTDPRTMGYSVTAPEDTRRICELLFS
Description: thermal shift assay, Sypro Orange. It counts as binding. The conditions noted are these: 0-1 mM Glc-1,6-P2; MgCl2 1 mM, pH 7.5.

Experiment [2] concerns the target T2, PMM1 (phosphomannomutase1) (Homo sapiens, UniProt Q92871).
T2 construct: recombinant, E. coli BL21(DE3), purified as in earlier work (DEAE, butyl Sepharose); dimer; no tag mentioned
T2 sequence (Q92871 2-262): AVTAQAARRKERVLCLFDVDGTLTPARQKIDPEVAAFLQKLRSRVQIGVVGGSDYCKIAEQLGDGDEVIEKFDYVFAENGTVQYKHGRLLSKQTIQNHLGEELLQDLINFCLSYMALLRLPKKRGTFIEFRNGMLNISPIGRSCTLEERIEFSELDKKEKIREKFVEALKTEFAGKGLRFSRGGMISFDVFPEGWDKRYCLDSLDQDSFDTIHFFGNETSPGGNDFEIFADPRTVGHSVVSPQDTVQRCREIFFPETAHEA
Description: thermal shift assay, Sypro Orange. It counts as binding. The conditions noted are these: 0-1 mM Glc-1,6-P2; MgCl2 1 mM, pH 7.5.

Experiment [3] has as its target T1, PMM2 (phosphomannomutase2). Description: coupled NADPH assay of phosphoglucomutase activity. It counts as biochemical. The conditions noted are these: 27 μM Glc-1,6-P2; MgCl2 5 mM, pH 7.5, 32°C.
In experiment [4] the target is T2, PMM1 (phosphomannomutase1). Description: coupled NADPH assays of phosphoglucomutase and Glc-1,6-P2 phosphatase activity. The conditions noted are these: PGM: 40 μM Glc-1-P, 27 μM Glc-1,6-P2, phosphatase: 0.145 mM Glc-1,6-P2. It counts as biochemical.

Each structure is given as a SMILES string.

Turning to `O=P(O)(O)OC[C@H]1O[C@H](OP(=O)(O)O)[C@H](O)[C@@H](O)[C@@H]1O` [Glc-1,6-P2], the Tm entry is recorded as “The bis-phosphate hexose binds PMM2” in experiment [1] and “effect of Glc-1,6-P2 on the melting temperature of PMM1 is seen only at very high concentrations” in experiment [2]. Consider `O=P(O)(O)O[C@H]1O[C@H](CO)[C@@H](O)[C@H](O)[C@H]1O` [Glc-1-P], for which the Km in experiment [3] amounted to 8.2 ± 0.7 µM.

As for `O=P(O)(O)C(Cl)(Cl)P(=O)(O)O` [clodronate, (Dichloro-phosphono-methyl)phosphonic acid], in experiment [4], the “activity at 2.8 mM clodronate” value is “clodronate as a novel specific inhibitor of PMM1 that decreases both PGM and Glc-1,6-P2-ase activities”.
